What was measured:
Format in all cases: functional
[1] = tested on: Staphylococcus aureus; test: Increase in icaC expression in biofilm-associated cells of epidemic methicillin-resistant Staphylococcus aureus isolate 16-2 at 4 times MIC incubated for 1 hr by RT-PCR relative to untreated control
[2] = tested on: Staphylococcus aureus; test: Decrease in tst gene expression in biofilm-associated cells of epidemic methicillin-resistant Staphylococcus aureus isolate 16 at 4 times MIC incubated for 1 hr by whole genome microarray relative to untreated control
[3] = tested on: Staphylococcus aureus; test: Decrease in sasF expression in biofilm-associated cells of epidemic methicillin-resistant Staphylococcus aureus isolate 16-1 at 4 times MIC incubated for 1 hr by RT-PCR relative to untreated control
[4] = tested on: Staphylococcus aureus; test: Decrease in polA gene expression in biofilm-associated cells of epidemic methicillin-resistant Staphylococcus aureus isolate 16 at 4 times MIC incubated for 1 hr by whole genome microarray relative to untreated control
[5] = tested on: Staphylococcus aureus; test: Increase in isaA expression in biofilm-associated cells of epidemic methicillin-resistant Staphylococcus aureus isolate 15 at 4 times MIC incubated for 1 hr by RT-PCR relative to untreated control
[6] = tested on: Staphylococcus aureus; test: Increase in fnbB expression in biofilm-associated cells of epidemic methicillin-resistant Staphylococcus aureus isolate 16-1 at 4 times MIC incubated for 1 hr by RT-PCR relative to untreated control
[7] = tested on: Staphylococcus aureus; test: Increase in recU gene expression in biofilm-associated cells of epidemic methicillin-resistant Staphylococcus aureus isolate 16 at 4 times MIC incubated for 1 hr by whole genome microarray relative to untreated control
[8] = tested on: Staphylococcus aureus; test: Decrease in capD gene expression in biofilm-associated cells of epidemic methicillin-resistant Staphylococcus aureus isolate 16 at 4 times MIC incubated for 1 hr by whole genome microarray relative to untreated control
[9] = tested on: Staphylococcus aureus; test: Increase in mnhD gene expression in biofilm-associated cells of epidemic methicillin-resistant Staphylococcus aureus isolate 16 at 4 times MIC incubated for 1 hr by whole genome microarray relative to untreated control
[10] = tested on: Staphylococcus aureus; test: Decrease in clpC gene expression in biofilm-associated cells of epidemic methicillin-resistant Staphylococcus aureus isolate 16 at 4 times MIC incubated for 1 hr by whole genome microarray relative to untreated control
[11] = tested on: Staphylococcus aureus; test: Decrease in capC gene expression in biofilm-associated cells of epidemic methicillin-resistant Staphylococcus aureus isolate 16 at 4 times MIC incubated for 1 hr by whole genome microarray relative to untreated control
[12] = tested on: Staphylococcus aureus; test: Decrease in icaC gene expression in biofilm-associated cells of epidemic methicillin-resistant Staphylococcus aureus isolate 16 at 4 times MIC incubated for 1 hr by whole genome microarray relative to untreated control
[13] = tested on: Staphylococcus aureus; test: Increase in cna expression in biofilm-associated cells of epidemic methicillin-resistant Staphylococcus aureus isolate 15 at 4 times MIC incubated for 1 hr by RT-PCR relative to untreated control
[14] = tested on: Staphylococcus aureus; test: Increase in gapR gene expression in biofilm-associated cells of epidemic methicillin-resistant Staphylococcus aureus isolate 16 at 4 times MIC incubated for 1 hr by whole genome microarray relative to untreated control
[15] = tested on: Staphylococcus aureus; test: Decrease in capC expression in biofilm-associated cells of epidemic methicillin-resistant Staphylococcus aureus isolate 15 at 4 times MIC incubated for 1 hr by RT-PCR relative to untreated control
[16] = tested on: Staphylococcus aureus; test: Decrease in mecI gene expression in biofilm-associated cells of epidemic methicillin-resistant Staphylococcus aureus isolate 16 at 4 times MIC incubated for 1 hr by whole genome microarray relative to untreated control
[17] = tested on: Staphylococcus aureus; test: Decrease in capG gene expression in biofilm-associated cells of epidemic methicillin-resistant Staphylococcus aureus isolate 16 at 4 times MIC incubated for 1 hr by RT-PCR relative to untreated control
[18] = tested on: Staphylococcus aureus; test: Increase in ssaA gene expression in biofilm-associated cells of epidemic methicillin-resistant Staphylococcus aureus isolate 16 at 4 times MIC incubated for 1 hr by whole genome microarray relative to untreated control
[19] = tested on: Staphylococcus aureus; test: Decrease in capG expression in biofilm-associated cells of epidemic methicillin-resistant Staphylococcus aureus isolate 16-1 at 4 times MIC incubated for 1 hr by RT-PCR relative to untreated control
[20] = tested on: Staphylococcus aureus; test: Increase in fnbB expression in biofilm-associated cells of epidemic methicillin-resistant Staphylococcus aureus isolate 15 at 4 times MIC incubated for 1 hr by RT-PCR relative to untreated control
[21] = tested on: Staphylococcus aureus; test: Decrease in sasF expression in biofilm-associated cells of epidemic methicillin-resistant Staphylococcus aureus isolate 15 at 4 times MIC incubated for 1 hr by RT-PCR relative to untreated control
[22] = tested on: Staphylococcus aureus; test: Decrease in clpC expression in biofilm-associated cells of epidemic methicillin-resistant Staphylococcus aureus isolate 15 at 4 times MIC incubated for 1 hr by RT-PCR relative to untreated control
[23] = tested on: Staphylococcus aureus; test: Decrease in capF gene expression in biofilm-associated cells of epidemic methicillin-resistant Staphylococcus aureus isolate 16 at 4 times MIC incubated for 1 hr by whole genome microarray relative to untreated control
[24] = tested on: Staphylococcus aureus; test: Decrease in tst expression in biofilm-associated cells of epidemic methicillin-resistant Staphylococcus aureus isolate 16-2 at 4 times MIC incubated for 1 hr by RT-PCR relative to untreated control
[25] = tested on: Staphylococcus aureus; test: Increase in mnhG gene expression in biofilm-associated cells of epidemic methicillin-resistant Staphylococcus aureus isolate 16 at 4 times MIC incubated for 1 hr by whole genome microarray relative to untreated control
[26] = tested on: Staphylococcus aureus; test: Increase in rplJ gene expression in biofilm-associated cells of epidemic methicillin-resistant Staphylococcus aureus isolate 16 at 4 times MIC incubated for 1 hr by whole genome microarray relative to untreated control
[27] = tested on: Staphylococcus aureus; test: Increase in mnhF gene expression in biofilm-associated cells of epidemic methicillin-resistant Staphylococcus aureus isolate 16 at 4 times MIC incubated for 1 hr by whole genome microarray relative to untreated control
[28] = tested on: Staphylococcus aureus; test: Increase in ssaA expression in biofilm-associated cells of epidemic methicillin-resistant Staphylococcus aureus isolate 16-1 at 4 times MIC incubated for 1 hr by RT-PCR relative to untreated control
[29] = tested on: Staphylococcus aureus; test: Increase in rplN gene expression in biofilm-associated cells of epidemic methicillin-resistant Staphylococcus aureus isolate 16 at 4 times MIC incubated for 1 hr by whole genome microarray relative to untreated control
[30] = tested on: Staphylococcus aureus; test: Increase in cna expression in biofilm-associated cells of epidemic methicillin-resistant Staphylococcus aureus isolate 16-2 at 4 times MIC incubated for 1 hr by RT-PCR relative to untreated control
[31] = tested on: Staphylococcus aureus; test: Increase in cna gene expression in biofilm-associated cells of epidemic methicillin-resistant Staphylococcus aureus isolate 16 at 4 times MIC incubated for 1 hr by whole genome microarray relative to untreated control
[32] = tested on: Staphylococcus aureus; test: Decrease in sasF gene expression in biofilm-associated cells of epidemic methicillin-resistant Staphylococcus aureus isolate 16 at 4 times MIC incubated for 1 hr by whole genome microarray relative to untreated control
[33] = tested on: Staphylococcus aureus; test: Decrease in clpC expression in biofilm-associated cells of epidemic methicillin-resistant Staphylococcus aureus isolate 16-2 at 4 times MIC incubated for 1 hr by RT-PCR relative to untreated control
[34] = tested on: Staphylococcus aureus; test: Increase in rplD gene expression in biofilm-associated cells of epidemic methicillin-resistant Staphylococcus aureus isolate 16 at 4 times MIC incubated for 1 hr by whole genome microarray relative to untreated control

## CN(C)c1cc(NC(=O)CNC(C)(C)C)c(O)c2c1C[C@H]1C[C@H]3[C@H](N(C)C)C(O)=C(C(N)=O)C(=O)[C@@]3(O)C(O)=C1C2=O [TIGECYCLINE]
[1]
  fold change (FC): 1.6
[2]
  fold change (FC): 2.39
[3]
  fold change (FC): 1.32
[4]
  fold change (FC): 2.11
[5]
  fold change (FC): 1.09
[6]
  fold change (FC): 3.03
[7]
  fold change (FC): 4.38
[8]
  fold change (FC): 2.19
[9]
  fold change (FC): 1.93
[10]
  fold change (FC): 2.44
[11]
  fold change (FC): 3.14
[12]
  fold change (FC): 2.06
[13]
  fold change (FC): 1.55
[14]
  fold change (FC): 9.12
[15]
  fold change (FC): 1.64
[16]
  fold change (FC): 2.39
[17]
  fold change (FC): 1.01
[18]
  fold change (FC): 2.84
[19]
  fold change (FC): 1.01
[20]
  fold change (FC): 1.22
[21]
  fold change (FC): 1.86
[22]
  fold change (FC): 1.23
[23]
  fold change (FC): 2.66
[24]
  fold change (FC): 5.52
[25]
  fold change (FC): 2.85
[26]
  fold change (FC): 12.75
[27]
  fold change (FC): 3.27
[28]
  fold change (FC): 2.04
[29]
  fold change (FC): 13.76
[30]
  fold change (FC): 1.2
[31]
  fold change (FC): 2.1
[32]
  fold change (FC): 2.3
[33]
  fold change (FC): 19.87
[34]
  fold change (FC): 13.06

Reference: ChEMBL document CHEMBL1240349, “Influence of tigecycline on expression of virulence factors in biofilm-associated cells of methicillin-resistant Staphylococcus aureus” (2010)
